Data set [1] deals with T1, C-C chemokine receptor type 6 (Homo sapiens) (UniProt P51684).
T1 sequence (whole entry): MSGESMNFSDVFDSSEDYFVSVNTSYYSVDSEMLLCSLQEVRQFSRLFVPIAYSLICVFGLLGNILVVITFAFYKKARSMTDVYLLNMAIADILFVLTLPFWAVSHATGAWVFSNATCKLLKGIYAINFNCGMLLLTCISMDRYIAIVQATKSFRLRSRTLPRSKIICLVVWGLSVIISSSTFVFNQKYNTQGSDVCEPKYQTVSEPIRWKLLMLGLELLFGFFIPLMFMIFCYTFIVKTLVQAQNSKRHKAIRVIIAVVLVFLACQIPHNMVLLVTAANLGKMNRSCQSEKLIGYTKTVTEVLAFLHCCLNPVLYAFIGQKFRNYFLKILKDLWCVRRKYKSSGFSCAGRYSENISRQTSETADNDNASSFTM
The experiment in a line: Binding affinity to CCR6 (unknown origin) at 10 uM by radioligand displacement assay.

The target in data set [2] is T2, C-C chemokine receptor type 4 (Homo sapiens) (UniProt P51679).
T2 sequence (whole entry): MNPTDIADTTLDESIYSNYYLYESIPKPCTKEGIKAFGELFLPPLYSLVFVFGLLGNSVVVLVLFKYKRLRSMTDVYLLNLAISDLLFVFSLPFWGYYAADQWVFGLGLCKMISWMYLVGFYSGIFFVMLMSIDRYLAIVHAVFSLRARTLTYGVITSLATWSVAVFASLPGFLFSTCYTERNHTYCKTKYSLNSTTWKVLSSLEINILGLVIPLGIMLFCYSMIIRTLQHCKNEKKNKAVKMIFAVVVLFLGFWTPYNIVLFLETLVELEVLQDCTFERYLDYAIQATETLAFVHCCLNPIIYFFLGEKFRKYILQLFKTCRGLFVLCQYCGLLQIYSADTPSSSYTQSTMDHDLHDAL
The experiment in a line: Antagonist activity at CCR4 (unknown origin) assessed as inhibition of chemotaxis at 10 uM.

Data set [3] relates to Rattus norvegicus. The experiment in a line: Toxicity in Sprague-Dawley rat assessed as necropsy at 70 to 360 mg/kg, po after 7 days. The format is organism-based. Details: dose 70-360 mg/kg, route oral. The settings on record: in vivo, 168 h.
In another data set the target is Cytochrome P450 1A2 (Homo sapiens, UniProt P05177). Kind of data set: Competitive inhibition of CYP1A2 (unknown origin). The format is ADME.
Data set [4] concerns the target C-X-C chemokine receptor type 6 (Homo sapiens) (UniProt O00574). Kind of data set: Antagonist activity at CXCR6 (unknown origin) assessed as inhibition of chemotaxis at 10 uM.
The target of data set [5] is T3, C-X-C chemokine receptor type 2 (Homo sapiens) (UniProt P25025).
T3 sequence (whole entry): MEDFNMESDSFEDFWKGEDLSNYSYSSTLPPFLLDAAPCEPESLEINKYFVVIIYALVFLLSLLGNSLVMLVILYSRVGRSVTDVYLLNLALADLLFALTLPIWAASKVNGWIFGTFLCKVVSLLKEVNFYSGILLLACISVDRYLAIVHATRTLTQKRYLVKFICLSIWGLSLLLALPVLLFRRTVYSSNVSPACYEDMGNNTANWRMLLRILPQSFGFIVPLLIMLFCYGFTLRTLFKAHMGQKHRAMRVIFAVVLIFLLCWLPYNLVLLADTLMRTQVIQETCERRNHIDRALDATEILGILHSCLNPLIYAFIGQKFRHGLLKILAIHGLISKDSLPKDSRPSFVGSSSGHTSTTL
Kind of data set: Binding affinity to CXCR2 (unknown origin) at 10 uM by radioligand displacement assay.

Data set [6] concerns the target T4, G protein-coupled receptor (Human herpesvirus 8) (UniProt Q76SF8).
T4 sequence (whole entry): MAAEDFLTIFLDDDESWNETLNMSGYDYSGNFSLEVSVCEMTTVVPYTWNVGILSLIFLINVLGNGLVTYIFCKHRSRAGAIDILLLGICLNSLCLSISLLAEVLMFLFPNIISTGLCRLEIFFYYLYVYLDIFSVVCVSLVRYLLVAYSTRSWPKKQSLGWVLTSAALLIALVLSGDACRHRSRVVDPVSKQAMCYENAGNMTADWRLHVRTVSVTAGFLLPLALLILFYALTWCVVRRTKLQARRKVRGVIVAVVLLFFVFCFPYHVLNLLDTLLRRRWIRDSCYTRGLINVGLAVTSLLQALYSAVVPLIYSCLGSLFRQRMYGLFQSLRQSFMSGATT
Kind of data set: Binding affinity to HHV8 ORF74 at 10 uM by radioligand displacement assay. The settings on record: Human gammaherpesvirus 8.

The target of data set [7] is T2, C-C chemokine receptor type 4 (Homo sapiens). Kind of data set: Binding affinity to CCR4 (unknown origin) at 10 uM by radioligand displacement assay.
The target of data set [8] is T4, G protein-coupled receptor (Human herpesvirus 8). Kind of data set: Antagonist activity at HHV8 ORF74 assessed as inhibition of chemotaxis at 10 uM. Particulars: Human gammaherpesvirus 8.
The target in data set [9] is T5, C-X-C chemokine receptor type 3 (Homo sapiens) (UniProt P49682).
T5 sequence (whole entry): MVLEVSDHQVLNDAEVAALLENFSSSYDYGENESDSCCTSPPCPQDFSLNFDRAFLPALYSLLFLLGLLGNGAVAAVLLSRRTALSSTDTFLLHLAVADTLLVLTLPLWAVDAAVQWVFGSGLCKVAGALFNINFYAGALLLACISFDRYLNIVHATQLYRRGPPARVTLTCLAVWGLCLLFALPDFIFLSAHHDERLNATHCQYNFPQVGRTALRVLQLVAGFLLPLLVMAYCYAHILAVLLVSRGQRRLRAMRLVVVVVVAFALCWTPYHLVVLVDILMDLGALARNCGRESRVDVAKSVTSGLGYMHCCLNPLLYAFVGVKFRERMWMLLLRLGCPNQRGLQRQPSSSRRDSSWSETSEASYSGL
Kind of data set: Antagonist activity at CXCR3 (unknown origin) assessed as inhibition of chemotaxis at 10 uM.

Data set [10] addresses T3, C-X-C chemokine receptor type 2 (Homo sapiens). Kind of data set: Antagonist activity at CXCR2 (unknown origin) assessed as inhibition of calcium flux at 10 uM. The format is functional.
The subject of data set [11] is Rattus norvegicus. The experiment in a line: Acute toxicity in Sprague-Dawley rat up to 1000 mg/kg. The format is organism-based. Also noted: dose 1000 mg/kg. Particulars: in vivo.
The target in data set [12] is C-C chemokine receptor type 8 (Homo sapiens) (UniProt P51685). Kind of data set: Antagonist activity at CCR8 (unknown origin) assessed as inhibition of chemotaxis at 10 uM.
Data set [13] deals with T6, CX3C chemokine receptor 1 (Homo sapiens) (UniProt P49238).
T6 sequence (whole entry): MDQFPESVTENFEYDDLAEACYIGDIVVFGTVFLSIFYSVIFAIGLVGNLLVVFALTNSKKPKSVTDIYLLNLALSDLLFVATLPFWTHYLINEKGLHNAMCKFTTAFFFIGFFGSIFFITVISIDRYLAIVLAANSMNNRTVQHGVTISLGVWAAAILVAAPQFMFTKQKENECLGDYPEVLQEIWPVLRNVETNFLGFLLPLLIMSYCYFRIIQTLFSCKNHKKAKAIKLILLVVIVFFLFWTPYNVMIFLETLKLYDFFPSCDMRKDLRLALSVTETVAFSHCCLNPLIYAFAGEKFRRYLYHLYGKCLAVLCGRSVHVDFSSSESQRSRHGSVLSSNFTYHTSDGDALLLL
The experiment in a line: Antagonist activity at CX3CR1 (unknown origin) assessed as inhibition of chemotaxis at 10 uM.

The nature of data set [14]: Plasma clearance in Beagle dog at 1 mg/kg, iv. Details: dose 1 mg/kg, route intravenous. The data set is classed as ADME, organism-based, Canis lupus familiaris.
The test system of the next data set is Cytomegalovirus. The experiment in a line: Antagonist activity at CMV US28 assessed as inhibition of chemotaxis at 10 uM.

From ChEMBL document CHEMBL2321873, “1-(4-Phenylpiperazin-1-yl)-2-(1H-pyrazol-1-yl)ethanones as novel CCR1 antagonists” (Bioorg Med Chem Lett, 2013) come the findings set out here.

Calls of active or inactive are those of the source. No cut-off for these calls is given here. Where only a bound is given, the exact number is not on record here.

Sequence of C-X-C chemokine receptor type 6 (Homo sapiens) (O00574 whole entry, looked up): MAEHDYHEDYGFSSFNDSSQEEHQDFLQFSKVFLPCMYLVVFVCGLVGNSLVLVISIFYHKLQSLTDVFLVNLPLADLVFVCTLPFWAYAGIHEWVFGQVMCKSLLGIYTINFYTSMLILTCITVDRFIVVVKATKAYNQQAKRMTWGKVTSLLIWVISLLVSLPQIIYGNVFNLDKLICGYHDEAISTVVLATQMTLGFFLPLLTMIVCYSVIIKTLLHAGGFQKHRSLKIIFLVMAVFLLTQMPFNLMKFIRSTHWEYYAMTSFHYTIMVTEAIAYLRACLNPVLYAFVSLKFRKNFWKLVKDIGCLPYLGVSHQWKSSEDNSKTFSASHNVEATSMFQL
Sequence of C-C chemokine receptor type 8 (Homo sapiens) (P51685 whole entry): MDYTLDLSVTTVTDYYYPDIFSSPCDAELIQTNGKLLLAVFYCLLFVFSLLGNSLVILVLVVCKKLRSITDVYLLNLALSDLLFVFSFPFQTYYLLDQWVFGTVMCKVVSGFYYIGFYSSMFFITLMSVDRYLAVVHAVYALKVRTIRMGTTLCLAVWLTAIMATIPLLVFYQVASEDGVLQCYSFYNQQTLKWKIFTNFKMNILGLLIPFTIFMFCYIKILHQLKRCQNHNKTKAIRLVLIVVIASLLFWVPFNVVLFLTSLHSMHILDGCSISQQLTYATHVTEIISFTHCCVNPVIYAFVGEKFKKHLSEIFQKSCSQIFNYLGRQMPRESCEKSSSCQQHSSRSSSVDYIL
Sequence of Cytochrome P450 1A2 (P05177 whole entry): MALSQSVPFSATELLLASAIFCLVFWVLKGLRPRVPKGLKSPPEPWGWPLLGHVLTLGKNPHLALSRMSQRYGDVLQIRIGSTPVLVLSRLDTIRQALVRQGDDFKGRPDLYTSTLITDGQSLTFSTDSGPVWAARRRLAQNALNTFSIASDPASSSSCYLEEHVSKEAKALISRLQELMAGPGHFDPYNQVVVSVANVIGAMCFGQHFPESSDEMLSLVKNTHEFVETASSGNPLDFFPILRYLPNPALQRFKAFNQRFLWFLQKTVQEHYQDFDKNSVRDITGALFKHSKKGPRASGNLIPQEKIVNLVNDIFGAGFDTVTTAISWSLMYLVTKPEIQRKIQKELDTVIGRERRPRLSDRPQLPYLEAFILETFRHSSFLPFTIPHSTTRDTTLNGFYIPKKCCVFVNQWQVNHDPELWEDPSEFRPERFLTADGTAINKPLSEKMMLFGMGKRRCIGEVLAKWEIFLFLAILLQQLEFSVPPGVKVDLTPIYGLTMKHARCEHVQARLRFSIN

In the case of `COc1cc(N2CCN(C(=O)Cn3nc(C(F)(F)F)c(Cl)c3C)CC2)ccc1Cl`, the result in [1], in [5], in [6] and in [7] was inactive. Also, the inhibition result in data set [2], in data set [4], in data set [8], in [9], in data set [10] and in data set [12] was “inactive” throughout. Besides, the inhibition result (in [13]; in the data set with Cytomegalovirus) was “inactive” in each case. The Activity entry with Rattus norvegicus [3] and in the data set with Rattus norvegicus [11] was “Non-toxic” throughout. Moreover, at Cytochrome P450 1A2, the IC50 was > 10 µM. The compound also yielded a clearance in data set [14] of 9.6 mL/min/kg.
